Tests used:
Carbonic anhydrase 9 = Carbonic anhydrase 9 (Homo sapiens, UniProt Q16790); assay: Inhibition of recombinant human CA9 preincubated for 15 mins by measured for 10 to 100 secs by phenol red dye based stopped flow CO2 hydration assay
MDA-MB-231 [1] = assay: Cytotoxicity against human MDA-MB-231 cells assessed as cell killing at 1 uM measured under normoxic condition after 48 hrs relative to control; assay type: functional
MDA-MB-231 [2] = assay: Cytotoxicity against human MDA-MB-231 cells assessed as cell viability at 10 uM measured under normoxic condition after 48 hrs relative to control; assay type: functional; details: read-out: Activity
MDA-MB-231 [3] = assay: Cytotoxicity against human MDA-MB-231 cells assessed as cell viability under hypoxia conditions at 1 uM measured after 48 hrs relative to control; assay type: functional
MDA-MB-231 [4] = assay: Cytotoxicity against human MDA-MB-231 cells assessed as cell viability under hypoxia conditions at 10 uM measured after 48 hrs relative to control; assay type: functional
MDA-MB-231 [5] = assay: Cytotoxicity against human MDA-MB-231 cells assessed as cell viability at 1 uM measured under normoxic condition after 48 hrs relative to control; assay type: functional; details: read-out: Activity
MDA-MB-231 [6] = assay: Cytotoxicity against human MDA-MB-231 cells assessed as cell killing under hypoxia conditions at 1 uM measured after 48 hrs relative to control; assay type: functional
MDA-MB-231 [7] = assay: Cytotoxicity against human MDA-MB-231 cells assessed as cell killing under hypoxia conditions at 10 uM measured after 48 hrs relative to control; assay type: functional

NS(=O)(=O)c1ccc(C[Te]c2ccccc2)cc1
Ki (Carbonic anhydrase 9): 2.4 nM | Activity (MDA-MB-231 [1]): 90% | viability at 10 µM (MDA-MB-231 [2]): 5% | Activity (MDA-MB-231 [3]): 16% | Activity (MDA-MB-231 [4]): 13%

COc1ccc([Te]Cc2ccc(S(N)(=O)=O)cc2)cc1
Ki (Carbonic anhydrase 9): 2.6 nM

Cc1cccc(C)c1[Te]Cc1ccc(S(N)(=O)=O)cc1
Ki (Carbonic anhydrase 9): 2.5 nM

COc1cc([Te]Cc2ccc(S(N)(=O)=O)cc2)cc(OC)c1OC
Ki (Carbonic anhydrase 9): 2.4 nM | viability at 10 µM (MDA-MB-231 [2]): 3% | viability at 1 µM (MDA-MB-231 [5]): 18% | Activity (MDA-MB-231 [6]): 65% | Activity (MDA-MB-231 [7]): 85%

NS(=O)(=O)c1ccc(C[Te]c2ccc3ccccc3c2)cc1
Ki (Carbonic anhydrase 9): 2.9 nM

Cc1ccc([Te]Cc2ccc(S(N)(=O)=O)cc2)cc1
Ki (Carbonic anhydrase 9): 2.2 nM

Cc1ccccc1[Te]Cc1ccc(S(N)(=O)=O)cc1
Ki (Carbonic anhydrase 9): 2.6 nM
